In US7629377B2, “Substituted naphthyl indole derivatives as inhibitors of plasminogen activator inhibitor type-1 (PAI-1)” (Wyeth, priority 2008, dated 2009) one finds IC50, melting point and inhibition data, which are given here for eleven compounds.

The target of one data set is human PAI-1 (Homo sapiens, UniProt P05121). In words: Assay for Determining IC50 of Inhibition of PAI-1 (Antibody Assay). The format is biochemical. The following applies: for IC50: Antibody Assay (footnote a), active PAI-1 bound to tPA-coated plate, pH 7.5; for inhibition at 25 µM: 25 μM test compound, footnote a (Antibody Assay). As to the method:
Assay for Determining IC50 of Inhibition of PAI-1
This assay is based upon the non-SDS dissociable interaction between tPA and active PAI-1. Assay plates are initially coated with human tPA (10 μg/ml). Test compounds are dissolved in DMSO at 10 mM, then diluted with physiologic buffer (pH 7.5) to a final concentration of 1-50 μM. Test compounds are incubated with human PAI-1 (50 ng/ml) for 15 minutes at room temperature. The tPA-coated plate is washed with a solution of 0.05% Tween 20 and 0.1% BSA, then the plate is blocked with a solution of 3% BSA. An aliquot of the test compound/PAI-1 solution is then added to the tPA-coated plate, incubated at room temperature for 1 hour, and washed. Active PAI-1 bound to the plate is assessed by adding an aliquot of a 1:1000 dilution of the 33B8 monoclonal antibody against human PAI-1, and incubating the plate at room temperature for 1 hour (Molecular Innovations, Royal Oak, Mich. The plate is again washed, and a solution of goat anti-mouse IgG-alkaline phosphatase conjugate is added at a 1:50,000 dilution in goat serum. The plate is incubated 30 minutes at room temperature, washed, and a solution of alkaline phosphatase substrate is added. The plate is incubated 45 minutes at room temperature, and color development is determined at OD405 nm. The quantitation of active PAI-1 bound to tPA at varying concentrations of test compound is used to determine the IC50. Results are analyzed using a logarithmic best-fit equation. The assay sensitivity is 5 ng/ml of human PAI-1 as determined from a standard curve ranging from 0-100 ng/ml.

Data set [1] deals with T1, recombinant human plasminogen activator inhibitor-1 (PAI-1) (Homo sapiens, UniProt P05121).
T1 construct: purchased Molecular Innovations, Royal Oak, Mich
T1 sequence (P05121 24-402): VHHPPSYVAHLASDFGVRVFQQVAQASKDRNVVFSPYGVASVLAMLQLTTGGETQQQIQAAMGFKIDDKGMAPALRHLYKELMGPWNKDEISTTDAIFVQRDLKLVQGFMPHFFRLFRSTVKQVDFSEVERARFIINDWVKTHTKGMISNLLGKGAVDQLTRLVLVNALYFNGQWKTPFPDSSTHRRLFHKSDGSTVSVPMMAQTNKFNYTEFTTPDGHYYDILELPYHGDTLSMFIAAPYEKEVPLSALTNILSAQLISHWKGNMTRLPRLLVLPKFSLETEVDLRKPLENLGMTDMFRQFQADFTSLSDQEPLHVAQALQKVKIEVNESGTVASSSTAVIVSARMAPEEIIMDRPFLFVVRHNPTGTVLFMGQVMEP
In words: modification of the Primary Screen for PAI-1 Inhibition. Type of data set: biochemical. The following applies: modification of the Primary Screen (footnote b); residual tPA activity, Spectrozyme-tPA. As for the experimental part:
Primary Screen for the PAI-1 Inhibition
Test compounds are dissolved in DMSO at a final concentration of 10 mM, then diluted […] in physiologic buffer. The inhibitory assay is initiated by the addition of test compound (1-100 μM final concentration, maximum DMSO concentration of 0.2%) in a pH 6.6 buffer containing 140 nM recombinant human plasminogen activator inhibitor-1 (PAI-1; Molecular Innovations, Royal Oak, Mich. Following a 1 hour incubation at room temperature, 70 nM of recombinant human tissue plasminogen activator (tPA) is added, and the combination of test compound, PAI-1 and tPA is incubated for an additional 30 minutes. Following the second incubation, Spectrozyme-tPA (American Diagnostica, Greenwich, Conn.), a chromogenic substrate for tPA, is added and absorbance read at 405 nm at 0 and 60 minutes. Relative PAI-1 inhibition is equal to the residual tPA activity in the presence of test compound and PAI-1. Control treatments include the complete inhibition of tPA by PAI-1 at the molar ratio employed (2:1), and the absence of any effect of the test compound on tPA alone.

Chain of human PAI-1 (P05121 24-402): as above

`CCCCCc1c(-c2ccc3cc(OCc4nnn[nH]4)ccc3c2)n(Cc2ccccc2)c2ccccc12` [Example 1, 1-Benzyl-3-pentyl-2-[6-(1H-tetraazol-5-ylmethoxy)-2-naphthyl]-1H-indole]: the IC50 (commonly the concentration that gives 50% inhibition) at human PAI-1 turned out to be 9.85 µM.

With `CCCCCc1c(-c2ccc3c(Br)c(OCc4nnn[nH]4)ccc3c2)n(Cc2ccccc2)c2ccccc12` [Example 2, 1-Benzyl-2-[5-bromo-6-(1H-tetraazol-5-ylmethoxy)-2-naphthyl]-3-pentyl-1H-indole], the melting point (as a rule, the temperature of the solid-liquid transition) is > 70 °C (dec.). Besides, the half-inhibitory concentration (IC50) in data set [1] was 8.8 µM.

`CCCCCc1c(-c2ccc3cc(OCc4nnn[nH]4)ccc3c2)n(C)c2ccccc12` [Example 3, 1-Methyl-3-pentyl-2-[6-(1H-tetraazol-5-ylmethoxy)-2-naphthyl]-1H-indole] had a melting point of 120 to 122 °C. Besides, at human PAI-1, the IC50 turned out to be 16.2 µM.

As for `CCCCCc1c(-c2ccc3c(Br)c(OCc4nnn[nH]4)ccc3c2)n(C)c2ccccc12` [Example 4, 2-[5-Bromo-6-(1H-tetraazol-5-ylmethoxy)-2-naphthyl]-1-methyl-3-pentyl-1H-indole], the melting point was > 125 °C (dec.). The IC50 in data set [1] amounted to 17.4 µM.

`CCCCCc1c(-c2ccc3cc(OCc4nnn[nH]4)ccc3c2)n(C(C)=O)c2ccccc12` [Example 5, 1-Acetyl-3-pentyl-2-[6-(1H-tetraazol-5-ylmethoxy)-2-naphthyl]-1H-indole]: the melting point is > 95 °C (dec.). Besides, the IC50 in data set [1] was 9.2 µM.

Turning to `CCCCCc1c(-c2ccc3c(Br)c(OCc4nnn[nH]4)ccc3c2)n(C(C)=O)c2ccccc12` [Example 6, 1-Acetyl-2-[5-bromo-6-(1H-tetraazol-5-ylmethoxy)-2-naphthyl]-3-pentyl-1H-indole], the melting point was > 79 °C (dec.). Further, 25 µM produced 16% inhibition against human PAI-1.

On to `CCCCCc1c(-c2ccc3cc(OCc4nnn[nH]4)ccc3c2)n(Cc2ccccc2C(F)(F)F)c2ccccc12` [Example 7, 3-Pentyl-2-[6-(1H-tetraazol-5-ylmethoxy)-2-naphthyl]-1-[2-(trifluoromethyl)benzyl]-1H-indole], for which the melting point was > 100 °C (dec.). The IC50 at human PAI-1 worked out at 5.22 µM.

In the case of `CCCCCc1c(-c2ccc3c(Br)c(OCc4nnn[nH]4)ccc3c2)n(Cc2ccccc2C(F)(F)F)c2ccccc12` [Example 8, 2-[5-Bromo-6-(1H-tetraazol-5-ylmethoxy)-2-naphthyl]-3-pentyl-1-[2-(trifluoromethyl)benzyl]-1H-indole], the melting point was > 85 °C (dec.). 25 µM produced 57% inhibition against human PAI-1.

Consider `CCCCCc1c(-c2ccc3cc(OCc4nnn[nH]4)ccc3c2)n(Cc2ccc(C(C)(C)C)cc2)c2ccccc12` [Example 9, 1-(4-tert-Butylbenzyl)-3-pentyl-2-[6-(1H-tetraazol-5-ylmethoxy)-2-naphthyl]-1H-indole], for which the melting point is > 95 °C (dec.). On human PAI-1, this compound displayed an IC50 of 24.9 µM.

With `CCCCCc1c(-c2ccc3c(Br)c(OCc4nnn[nH]4)ccc3c2)n(Cc2ccc(C(C)(C)C)cc2)c2ccccc12` [Example 10, 2-[5-Bromo-6-(1H-tetraazol-5-ylmethoxy)-2-naphthyl]-1-(4-tert-butylbenzyl)-3-pentyl-1H-indole], the melting point was > 90 °C (dec.). The inhibition (as a rule, how much of the control response was suppressed) at 25 µM on human PAI-1 was 60%.

Take `CCCCCc1c(-c2ccc3c(Br)c(OCC(=O)O)ccc3c2)n(C)c2ccccc12` [Example 11, {[1-Bromo-6-(1-methyl-3-pentyl-1H-indol-2-yl)-2-naphthyl]oxy}acetic acid]: the melting point is > 73 °C (dec.). The IC50 at human PAI-1 was determined as 10.7 µM.
